What was measured:
[1] = Particle size and polydispersity index of lipid nanoparticles by dynamic light scattering; type: physicochemical; conditions: mean ± SD n=3
Method: The average hydrodynamic diameter and polydispersity index (PDI) of lipid nanoparticles were measured by dynamic light scattering (DLS) using a Malvern Zetasizer Nano ZS (Malvern Instruments, UK). All measurements were performed at 25° C. (n=3) by loading the lipid formulations (10 μL) into clear 96-well half-area polystyrene plates and diluting with 190 μL milli-Q water (Zhai et al. 2015).

[2] = Mesophase (phase behaviour) of lipid nanoparticles by synchrotron SAXS; type: physicochemical
Method: Nanoparticle preparations (50 μL) were loaded into a transparent 96-well half-area polystyrene plate (Greiner Bio-One, Interpath Inc., VIC, Australia), and 50 μL of a suitable buffer solution (Citrate buffer) of specified pH was added to the plate. Phase behaviour of the nanoparticles was characterized at the SAXS/WAXS beamline of the Australian Synchrotron. The instrument used an X-ray wavelength of λ=1.128 Å (11.0 keV) with atypical flux of approximately […]. The sample to detector distance was chosen as 1.6 m which provided a q-range of 0.01-0.5 Å^−1 (scattering vector q=4π sin (θ/2)/λ, whereby θ is the scattering angle and λ is the wavelength). Sample scattering patterns were obtained at 25° C. and 37° C. following the procedure reported in the literature. The plate was placed in a holder perpendicular to the X-ray beam. The sample holder was moved by motors that were controlled by in-house ScatterBrain software for automatic SAXS screening. The sample temperature was controlled by a circulating water bath and kept at 25° C. or 37° C. Two-dimensional X-ray diffraction images were recorded on a Decris-Pilatus 1-M detector using ScatterBrain. The scattering images were integrated into one dimensional plots of intensity versus q for phase identification. The mesophase of the nanoparticles were assigned by matching the relative positions of the scattering peaks with known patterns for bicontinuous cubic, hexagonal, lamellar, and micellar cubic phase. The lattice parameter of the nanoparticles were calculated using the IDL-based software AXcess following the described method (Tran et al. 2018; Tran et al. 2016).
As detailed in Example 2 above, lipid nanoparticles described herein were prepared by doping the synthesised amino lipids into MO at 8 different compositions (RMO=0.05, 0.1, 0.15, 0.2, 0.25, 0.3, 0.4, 0.5) and dispersed with Pluronic F-127. Mesophase structure of the drug-free formulations was determined by SAXS over ten different pH values (a pH range of 2.5 to 10). FIG. 3 represents the SAXS partial phase diagrams of these nanoparticles at 25° C. The shape of an amphiphile can be characterised by the critical packing parameter (CPP). CPP=V/al, in which V is the effective volume of the amphiphile's hydrophobic tail, a is the effective cross-sectional area of the headgroup, and l is the effective length of the hydrocarbon chain. Lamellar phases (Lα) are typically observed with a zero interfacial curvature. For CPP values greater than 1, inverse phases, such as Q2 and H2 phases, are formed with increasing negative interfacial curvatures. The Q2 phase consists of lipid bilayers arranged in periodic 3D structures by twisting the bilayers into the shape of infinite periodic minimal surfaces. The H2 is a closed, extended micellar columnar structure, where there is no direct contact between the water inside and outside the H2 phase.

[3] = Drug loading and encapsulation efficiency of SN-38 nanoparticles by HPLC; type: physicochemical
Method: The amount of drug loading (DL) and encapsulation efficiency (EE) were determined for each of the four formulations of Example 5 using an HPLC method.
The nanoparticles containing the drug was centrifuged at 1000×g for 25 min at 25° C. to remove any un-encapsulated drug agglomerates. The supernatant was collected and vortexed for 10 min at 2500 rpm for uniform distribution.
For the SN-38 drug content assay, a UV variable detector at a wavelength of 265 nm and an Agilent Zorbax SB-C18 column (4.6 mm×250 mm, five μm) were utilised. The mobile phase consisted of a 50:50 (v/v) mixture of 25 mM NaH2PO4 (pH=3.1) buffer and acetonitrile. The mobile phase pH was maintained at 3.8 to ensure the analyte, SN-38, was in the closed lactone ring form during the assay. The sample for HPLC was prepared by diluting the nanoparticles 100 times with HPLC solvents (10 μL of the formulation with 990 μL 50/50 mixture of buffer and acetonitrile). During the assay, an aliquot of 20 μL of the sample was injected in duplicate into the HPLC system at a flow rate of 1 ml/min. The SN-38 content in the formulation was quantitatively determined using a standard curve prepared as outlined in previously published journal articles (Zhang et al. 2004; Escoriaza et al. 2000).
The following equation was used calculate the encapsulation efficiency (EE %) […]

[4] = cited from earlier work
[5] = In vitro release of SN-38 by dynamic dialysis; type: physicochemical; conditions: pure-drug suspension, no lipid nanocarriers, within 60-90 min
Method: In vitro release of SN-38 from the nanoparticles was evaluated using a dynamic dialysis method (Zambito, Y. International Journal of Pharmaceutics 2012, 434 (1), 28-34). The drug release rate was determined by placing the dispersion in a dialysis tube (Pur-A-Lyzer™ Maxi Dialysis tube molecular weight cut off 3500) and exhaustively dialysing.
After removing the free drug, the highest SN-38 loaded nanoparticles (1 mL formulation) were placed inside the dialysis tube. The dialysis tube was then immersed in a 1000 mL buffer maintained at 37±1.0° C. and stirred at 400 rpm. The analysis of the separation of free drug from drug-loaded formulations was carried out over a period of 420 min. Release experiments were performed in triplicate on three independently prepared SN-38 loaded formulations. For physiological pH, experiments were carried out by dialysing the formulations against 1000 mL of phosphate buffer (pH 7.0). Lower pH experiments were carried out by dialysing the formulations against 1000 mL of phosphate buffer adjusted to the required pH. The SN-38 that remained in the dialysis tube was quantitatively measured by the HPLC method. At predetermined time intervals (60 min, 120 min, 240 min and 420 min), 10 μL of the sample was withdrawn from the dialysis tube and diluted with 990 μL of the HPLC solvent. […]

[6] = MO nanoparticles with amino lipid at RMO 0.05, Pluronic F-127, 25° C.
[7] = MO nanoparticles with amino lipid at RMO 0.1, Pluronic F-127, 25° C.
[8] = MO nanoparticles with amino lipid at RMO 0.15, Pluronic F-127, 25° C.
[9] = MO nanoparticles with amino lipid at RMO 0.2, Pluronic F-127, 25° C.
[10] = MO nanoparticles with amino lipid at RMO 0.25, Pluronic F-127, 25° C.
[11] = MO nanoparticles with amino lipid at RMO 0.3, Pluronic F-127, 25° C.
[12] = MO nanoparticles with amino lipid at RMO 0.4, Pluronic F-127, 25° C.
[13] = MO nanoparticles with amino lipid at RMO 0.5, Pluronic F-127, 25° C.

Structure (SMILES)	PDI of the formulations [1, 6]	Particle Size in nm [1, 6]	PDI of the formulations [1, 7]	Particle Size in nm [1, 7]	PDI of the formulations [1, 8]	Particle Size in nm [1, 8]	PDI of the formulations [1, 9]	Particle Size in nm [1, 9]	PDI of the formulations [1, 10]	Particle Size in nm [1, 10]	PDI of the formulations [1, 11]	Particle Size in nm [1, 11]	PDI of the formulations [1, 12]	Particle Size in nm [1, 12]	PDI of the formulations [1, 13]	Particle Size in nm [1, 13]	further results
CCCCCCCC/C=C\CCCCCCCC(=O)NCc1ccncc1 [Lipid-10, N-(pyridine-4-ylmethyl)oleamide]	0.16 ± 0.03	217 ± 6 nm	0.21 ± 0.02	224 ± 3 nm	0.2 ± 0.05	259 ± 8 nm	0.19 ± 0.03	271 ± 4 nm	0.39 ± 0.03	250 ± 3 nm	0.22 ± 0.02	246 ± 4 nm	0.24 ± 0.03	244 ± 6 nm	0.25 ± 0.04	265 ± 4 nm	Shift of H2 to Q2 transition at 37° C. compared to 25° C. (higher) ([2]; RMO 0.4, pH 4.0 to 7.5): 0.5 pH unit; pH at which Q2 is reached in the transition from H2 at pH 7.5 ([2]; RMO=0.4-0.5, 25° C.): 5.5 pH; pH resulting in liposome formation ([2]; RMO=0.4-0.5, further decrease in pH): 4.0 pH; RMO at which the transition from Q2 to H2 occurred ([2]; pH 7, MO nanoparticles): 0.4
CCCCCCCC/C=C\CCCCCCCC(=O)NCc1ccccn1 [Lipid-11]	0.23 ± 0.04	284 ± 2 nm	0.18 ± 0.03	255 ± 4 nm	0.20 ± 0.03	300 ± 7 nm	0.23 ± 0.02	267 ± 4 nm	0.28 ± 0.02	313 ± 4 nm	0.20 ± 0.02	290 ± 4 nm	0.10 ± 0.02	272 ± 5 nm	0.21 ± 0.03	300 ± 4 nm	Phase observed ([2]; RMO=0.4, neutral pH, MO nanoparticles): L2 phase; pH of transition from L2 to Q2 ([2]; RMO=0.4-0.5): 3.0 pH
CCCCCCCC/C=C\CCCCCCCC(=O)NCCN1CCOCC1 [Lipid-12]	0.23 ± 0.03	214 ± 4 nm	0.20 ± 0.05	218 ± 3 nm	0.20 ± 0.05	239 ± 3 nm	0.30 ± 0.03	250 ± 2 nm	0.25 ± 0.03	191 ± 8 nm	0.25 ± 0.05	206 ± 11 nm	0.40 ± 0.04	205 ± 6 nm	0.38 ± 0.03	137 ± 6 nm	
CCCCCCCC/C=C\CCCCCCCC(=O)NCCN1CCCCC1 [Lipid-13, N-(2-(piperidin-1-yl)ethyl)oleamide]	0.25 ± 0.03	180 ± 3 nm	0.20 ± 0.04	176 ± 4 nm	0.23 ± 0.04	168 ± 4 nm	0.22 ± 0.05	185 ± 6 nm	0.19 ± 0.03	180 ± 2 nm	0.23 ± 0.03	194 ± 5 nm	0.15 ± 0.05	200 ± 5 nm	0.18 ± 0.05	209 ± 5 nm	pH difference within which the change from H2 to Q2 is observed ([2]; RMO=0.2-0.3): ≤ 0.5 pH unit; pH of H2→Q2 transition ([2]; RMO=0.2-0.3): 7.0 pH
CCc1c2c(nc3ccc(O)cc13)-c1cc3c(c(=O)n1C2)COC(=O)[C@]3(O)CC [SN-38]																	Loading relative to solubility of SN-38 in water ([3]; 844 μg/ml loading): ~100 times; Loading of SN-38 ([3]; highest loading achieved in MO/Lipid-10 nanoparticles): 844 µg/mL; Solubility in water [4]: 7 to 11 µg/mL; SN-38 released through dialysis membrane [5]: More than 90%
